Source: patent publication US7713994B2 (Wyeth LLC, priority 2005, dated 2010)

These compounds were tested against T1, IGF1-receptor kinase (Homo sapiens, UniProt P08069) (assay: IGF1-R kinase assay (96-well FRET Lance)). Settings: 10 uM compound.
T1 construct: Purified GST-IGFR; purified Bis-IGFR and Tris-IGFR; fused on or other part: GST with a thrombin cleavage site, removed in the Bis-IGFR and Tris-IGFR forms
Format: biochemical
From the text: • TITLE: 96-well assay for inhibitors of IGF1-receptor kinase activity • SHORT TITLE: IGF1-R kinase assay • PURPOSE: Identify inhibitors of IGF-1 receptor kinase activity • MATERIALS AND METHODS: Overview: This is a 96-well FRET (Lance) tyrosine kinase assay. • Materials: • Purified GST-IGFR; purified Bis-IGFR and Tris-IGFR; expressed in ExpresSF insect cells. Bis and Tris IGFR are made by phosphorylating the IGFR in the presence of ATP and Mg2+, followed by thrombin cleavage to remove the GST-thrombin cleavage site, and purification by HPLC. The Bis and tris IGFR are phosphorylated on two (bis) or all three tyrosines (tris) in the activation loop. • Biotinylated peptide with a sequence corresponding to the sequence surrounding the autophosphorylation sites in IGF1-R Biotin-NH2-[…]-OH (Anaspec) • Europium-conjugated phosphotyrosine antibody (PT66) (Perkin-Elmer). • Surelight APC (Perkin-elmer) • Plates: 96-well Assay plates (polypropylene plates, natural color) • 96-well-Lance plates (Microfluor 2 black plates; Cat # 7205; Thermolabsystems. • ATP: (Amersham Pharmacia Cat # 27-2056-01), 100 mM stock. • IGFR Lance Protocol (96-well format) • Procedure: • Reagents: • Kinase Buffer (10×): • 0.5 M Hepes, pH 7.5 rt • 0.1 M MgCl2 • Quench Buffer (to be added straight, 1:1, to r×n mix): • 50 mM Hepes, pH 7.5 rt • 50 mM EDTA • Lance Detection Buffer: • 20 mM Tris-HCl, pH 7.5 rt • 0.15 M NaCl-150 • 150 ug/ml BSA (Sigma Cat# A-7284) • Eu-labeled phosphotyrosine antibody PT66 (Perkin-Elmer): 1:4000 dilution of 200 μg/ml stock • Streptavidin-APC (Perkin Elmer): 1/250 (4 microgram/ml final) • ATP (Amersham Pharmacia cat #27-2056-01) 100 mM stock: Dilute to 1 mM (10×) in water. […] Transfer 12.5[…] of the kinase reaction to the antibody detection plate. Allow antibody to react for 1 h at rt in the dark. Then read in Victor with an excitation filter of 340 nm and an emission filter of 665 nm. • Compound additions: • When Example compounds are tested, they are added from a 10% DMSO/50 mM Hepes (pH 7.5) 10× stock. 5 microliters of compound in this buffer are added to the enzyme-peptide-buffer mix. After 10′ incubation at room temperature, ATP is added to start the reaction. A no ATP background control is included in the assay. • […] OF RESULTS: Data are analyzed as follows: % Inhibition={[Sample cpm−Bkg cpm]/[No cmpd cpm−Bkg cpm]}×100%. The biological activity of representative Examples of the invention is reported in Table VII as: 0.2 µM≦x≦10 µM or % inhibition@10 µM.

T1 sequence (P08069 999-1274 limits assumed): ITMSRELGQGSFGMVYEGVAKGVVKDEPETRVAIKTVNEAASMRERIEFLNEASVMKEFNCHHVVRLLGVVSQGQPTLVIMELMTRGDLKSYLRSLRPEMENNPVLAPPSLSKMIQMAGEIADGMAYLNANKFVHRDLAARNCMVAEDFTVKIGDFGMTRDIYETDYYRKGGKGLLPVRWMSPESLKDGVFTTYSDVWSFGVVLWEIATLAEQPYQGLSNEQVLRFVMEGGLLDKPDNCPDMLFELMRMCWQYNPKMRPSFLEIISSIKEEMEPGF

Igfr % Inhibition at 10 uM	Compound
20%	COc1cc(Nc2ccc3c(c2)/C(=C/Nc2ccc(CN4CCCCC4)cc2)C(=O)NC3=O)cc(C(F)(F)F)c1 [Example 900]
9%	O=C1NC(=O)c2ccc(Nc3ccc4[nH]ccc4c3)cc2/C1=C/Nc1ccc(CN2CCCCC2)cc1 [Example 912]

Same assay, conditions: 10 uM compound; read-out: Igfr % Inhibition at 10 uM

inhibition at 10 µM	Compound
32%	O=C1NC(=O)c2ccc(Nc3cccc(C(F)(F)F)c3)cc2/C1=C/Nc1ccc(CN2CCCCC2)cc1 [Example 886, (4Z)-4-({[4-(piperidin-1-ylmethyl)phenyl]amino}methylene)-6-{[3-(trifluoromethyl)phenyl]amino}isoquinoline-1,3(2H,4H)-dione]
14%	CN(C)c1ccc(Nc2ccc3c(c2)/C(=C/Nc2ccc(CN4CCCCC4)cc2)C(=O)NC3=O)cc1 [Example 888, (4Z)-6-{[4-(dimethylamino)phenyl]amino}-4-({[4-(piperidin-1-ylmethyl)phenyl]amino}methylene)isoquinoline-1,3(2H,4H)-dione]
47%	O=C1NC(=O)c2ccc(Nc3ccc(Cl)cc3)cc2/C1=C/Nc1ccc(CN2CCCCC2)cc1 [Example 890, (4Z)-6-[(4-chlorophenyl)amino]-4-({[4-(piperidin-1-ylmethyl)phenyl]amino}methylene)isoquinoline-1,3(2H,4H)-dione]
45%	CCOC(=O)c1ccc(Nc2ccc3c(c2)/C(=C/Nc2ccc(CN4CCCCC4)cc2)C(=O)NC3=O)cc1 [Example 903, ethyl 4-{[(4Z)-1,3-dioxo-4-({[4-(piperidin-1-ylmethyl)phenyl]amino}methylene)-1,2,3,4-tetrahydroisoquinolin-6-yl]amino}benzoate]

Same assay, conditions: 100 micromolar ATP; read-out: Igfr ic50

Compound	IC50
O=C1NC(=O)c2ccc(Nc3ccccc3)cc2/C1=C/Nc1ccc(CN2CCCCC2)cc1 [Example 887, (4Z)-6-anilino-4-({[4-(piperidin-1-ylmethyl)phenyl]amino}methylene)isoquinoline-1,3(2H,4H)-dione]	0.208 µM
Cc1ccc(Nc2ccc3c(c2)/C(=C/Nc2ccc(CN4CCCCC4)cc2)C(=O)NC3=O)cc1 [Example 889, (4Z)-6-[(4-methylphenyl)amino]-4-({[4-(piperidin-1-ylmethyl)phenyl]amino}methylene)isoquinoline-1,3(2H,4H)-dione]	0.394 µM
COc1ccccc1Nc1ccc2c(c1)/C(=C/Nc1ccc(CN3CCCCC3)cc1)C(=O)NC2=O [Example 891]	0.575 µM
O=C1NC(=O)c2ccc(Nc3ccc4c(c3)CCC4)cc2/C1=C/Nc1ccc(CN2CCCCC2)cc1 [Example 895, (4Z)-6-(2,3-dihydro-1H-inden-5-ylamino)-4-({[4-(piperidin-1-ylmethyl)phenyl]amino}methylene)isoquinoline-1,3(2H,4H)-dione]	7.22 µM
O=C1NC(=O)c2ccc(Nc3ccc4c(c3)OCO4)cc2/C1=C/Nc1ccc(CN2CCCCC2)cc1 [Example 896, (4Z)-6-(1,3-benzodioxol-5-ylamino)-4-({[4-(piperidin-1-ylmethyl)phenyl]amino}methylene)isoquinoline-1,3(2H,4H)-dione]	0.83 µM
N#Cc1ccc(Nc2ccc3c(c2)/C(=C/Nc2ccc(CN4CCCCC4)cc2)C(=O)NC3=O)cc1 [Example 897, 4-{[(4Z)-1,3-dioxo-4-({[4-(piperidin-1-ylmethyl)phenyl]amino}methylene)-1,2,3,4-tetrahydroisoquinolin-6-yl]amino}benzonitrile]	1.52 µM
COc1ccc(Nc2ccc3c(c2)/C(=C/Nc2ccc(CN4CCCCC4)cc2)C(=O)NC3=O)cc1 [Example 898, (4Z)-6-[(4-methoxyphenyl)amino]-4-({[4-(piperidin-1-ylmethyl)phenyl]amino}methylene)isoquinoline-1,3(2H,4H)-dione]	0.868 µM
N#Cc1ccccc1Nc1ccc2c(c1)/C(=C/Nc1ccc(CN3CCCCC3)cc1)C(=O)NC2=O [Example 902, 2-{[(4Z)-1,3-dioxo-4-({[4-(piperidin-1-ylmethyl)phenyl]amino}methylene)-1,2,3,4-tetrahydroisoquinolin-6-yl]amino}benzonitrile]	3.7 µM
O=C1NC(=O)c2ccc(Nc3ccccc3Cl)cc2/C1=C/Nc1ccc(CN2CCCCC2)cc1 [Example 904, (4Z)-6-[(2-chlorophenyl)amino]-4-({[4-(piperidin-1-ylmethyl)phenyl]amino}methylene)isoquinoline-1,3-(2H,4H)-dione]	1.7 µM
COc1ccc(Nc2ccc3c(c2)/C(=C/Nc2ccc(CN(C)C)cc2)C(=O)NC3=O)cc1 [Example 908, (4Z)-4-[({4-[(dimethylamino)methyl]phenyl}amino)methylene]-6-[(4-methoxyphenyl)amino]isoquinoline-1,3(2H,4H)-dione]	0.566 µM
CCN(CC)Cc1ccc(N/C=C2\C(=O)NC(=O)c3ccc(Nc4ccc(C)cc4)cc32)cc1 [Example 911, (4Z)-4-[({4-[(diethylamino)methyl]phenyl}amino)methylene]-6-[(4-methylphenyl)amino]isoquinoline-1,3(2H,4H)-dione]	1.16 µM

Continued, values first:

IC50	Compound
0.954 µM	COc1cccc(Nc2ccc3c(c2)/C(=C/Nc2ccc(CN4CCCCC4)cc2)C(=O)NC3=O)c1 [Example 892, (4Z)-6-[(3-methoxyphenyl)amino]-4-({[4-(piperidin-1-ylmethyl)phenyl]amino}methylene)isoquinoline-1,3(2H,4H)-dione]
0.708 µM	N#Cc1cccc(Nc2ccc3c(c2)/C(=C/Nc2ccc(CN4CCCCC4)cc2)C(=O)NC3=O)c1 [Example 893, 3-{[(4Z)-1,3-dioxo-4-({[4-(piperidin-1-ylmethyl)phenyl]amino}methylene)-1,2,3,4-tetrahydroisoquinolin-6-yl]amino}benzonitrile]
1.11 µM	NC(=O)c1ccc(Nc2ccc3c(c2)/C(=C/Nc2ccc(CN4CCCCC4)cc2)C(=O)NC3=O)cc1 [Example 894, 4-{[(4Z)-1,3-dioxo-4-({[4-(piperidin-1-ylmethyl)phenyl]amino}methylene)-1,2,3,4-tetrahydroisoquinolin-6-yl]amino}benzamide]
3.09 µM	O=C1NC(=O)c2ccc(Nc3cccc(F)c3)cc2/C1=C/Nc1ccc(CN2CCCCC2)cc1 [Example 899, (4Z)-6-[(3-fluorophenyl)amino]-4-({[4-(piperidin-1-ylmethyl)phenyl]amino}methylene)isoquinoline-1,3(2H,4H)-dione]
6.03 µM	CC(=O)c1ccc(Nc2ccc3c(c2)/C(=C/Nc2ccc(CN4CCCCC4)cc2)C(=O)NC3=O)cc1 [Example 901, (4Z)-6-[(4-acetylphenyl)amino]-4-({[4-(piperidin-1-ylmethyl)phenyl]amino}methylene)isoquinoline-1,3(2H,4H)-dione]
2.62 µM	O=C1NC(=O)c2ccc(Nc3cccc(Cl)c3)cc2/C1=C/Nc1ccc(CN2CCCCC2)cc1 [Example 905]
0.92 µM	CN(C)Cc1ccc(N/C=C2\C(=O)NC(=O)c3ccc(Nc4ccccc4)cc32)cc1 [Example 906, (4Z)-6-anilino-4-[({4-[(dimethylamino)methyl]phenyl}amino)methylene]isoquinoline-1,3(2H,4H)-dione]
1.39 µM	COc1cccc(Nc2ccc3c(c2)/C(=C/Nc2ccc(CN(C)C)cc2)C(=O)NC3=O)c1 [Example 907, (4Z)-4-[({4-[(dimethylamino)methyl]phenyl}amino)methylene]-6-[(3-methoxyphenyl)amino]isoquinoline-1,3(2H,4H)-dione]
0.887 µM	CC(=O)c1cccc(Nc2ccc3c(c2)/C(=C/Nc2ccc(CN(C)C)cc2)C(=O)NC3=O)c1 [Example 909, (4Z)-6-[(3-acetylphenyl)amino]-4-[({4-[(dimethylamino)methyl]phenyl}amino)methylene]isoquinoline-1,3(2H,4H)-dione]
0.54 µM	CC(=O)c1cccc(Nc2ccc3c(c2)/C(=C/Nc2ccc(N4CC(C)NC(C)C4)cc2)C(=O)NC3=O)c1 (stereo not drawn) [Example 910, (4Z)-6-[(3-acetylphenyl)amino]-4-({[4-(3,5-dimethylpiperazin-1-yl)phenyl]amino}methylene)isoquinoline-1,3(2H,4H)-dione]
